Earlier results on five molecules are cited in patent US20020045168A1, “Computer based modeling system” (priority 2000, published 2002).

SMILES strings stand for the structures.

Some test systems named below: AMP aptamer (1am0); Arg aptamer (1koc); citruline aptamer (1kod); FMN aptamer (1fmn).
What all share (details): experimental, native ligand
Data set [1] relates to tobramycin aptamer (2tob).

On to `Nc1ncnc2c1ncn2[C@@H]1O[C@H](COP(=O)(O)O)[C@@H](O)[C@H]1O` [AMP, adenosine monophosphate], for which the “Exptl ΔGbind” value with AMP aptamer (1am0) is reported as −28.5 kJmol^−1.
As for `N=C(N)NCCC[C@H](N)C(=O)O` [Arginine, arginine], in the data set on Arg aptamer (1koc), the “Exptl ΔGbind” value was −28.5 kJmol^−1.
Regarding `NC(=O)NCCC[C@H](N)C(=O)O` [Citruline, citruline], the “Exptl ΔGbind” value in the data set on citruline aptamer (1kod) was −28.5 kJmol^−1.
As for `Cc1cc2nc3c(=O)[nH]c(=O)nc-3n(C[C@H](O)[C@H](O)[C@H](O)COP(=O)(O)O)c2cc1C` [Fmn, flavin mononucleotide], the “Exptl ΔGbind” value in the data set on FMN aptamer (1fmn) is −30.1 kJmol^−1.
Turning to `NC[C@H]1O[C@H](O[C@H]2[C@H](O)[C@@H](O[C@H]3O[C@H](CO)[C@@H](O)[C@H](N)[C@H]3O)[C@H](N)C[C@@H]2N)[C@H](N)C[C@@H]1O` [Tobramycin, tobramycin], the “Exptl ΔGbind” value in data set [1] is −45.2 kJmol^−1.
